The values that follow come from patent US4528133A, “Biologically active tripeptide and tetrapeptide alkylamides, and method for the preparation thereof” (SPOFA, spojene podniky pro zdravotnickou vyrobu, priority 1982, dated 1985).

As a reminder, the Ki is the equilibrium dissociation constant of an inhibitor or competing ligand from its target.

In assay [1] the target is T1, leucocytal elastase (Homo sapiens, UniProt P08246).
T1 sequence (P08246 30-267): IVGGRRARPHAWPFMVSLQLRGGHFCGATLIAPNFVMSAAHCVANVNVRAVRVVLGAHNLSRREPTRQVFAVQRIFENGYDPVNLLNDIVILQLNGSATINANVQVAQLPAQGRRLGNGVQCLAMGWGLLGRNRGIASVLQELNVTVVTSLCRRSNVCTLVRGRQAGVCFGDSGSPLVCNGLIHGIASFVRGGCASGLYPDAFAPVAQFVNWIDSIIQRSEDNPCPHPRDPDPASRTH
The experiment in a line: Inhibition of leucocytal elastase (LE), Ki with synthetic nitroanilide substrate. Format: biochemical. To be noted: substrate Glt-(Ala)3-Val-Nan; for Ki: read-out: Inhibition constant Ki, LE, Glt--(Ala)3--Val--Nan.

The target in assay [2] is pancreatic elastase (UniProt P00772). The experiment in a line: Inhibition of pancreatic elastase (PE), Ki with synthetic nitroanilide substrates. It counts as biochemical.
Where [3] appears, read: substrate Glt-(Ala)4-Nan, read-out: Inhibition constant Ki, PE, Glt--(Ala)4--Nan.
Where [4] appears, read: substrate Suc-(Ala)4-Nan, read-out: Inhibition constant Ki, PE, Suc--(Ala)4--Nan.

Like-named read-outs stand apart in the source and are kept apart here. Where a SMILES comes first, the peptide text is derived from it. The star is where a group is joined. Undecanoyl = CCCCCCCCCCC(=O)*; Cbz = O=C(OCc1ccccc1)*; Butyryl = CCCC(=O)*; NHiBu = CC(C)CN*; NHPr = CCCN*

Chain of pancreatic elastase (P00772 27-266): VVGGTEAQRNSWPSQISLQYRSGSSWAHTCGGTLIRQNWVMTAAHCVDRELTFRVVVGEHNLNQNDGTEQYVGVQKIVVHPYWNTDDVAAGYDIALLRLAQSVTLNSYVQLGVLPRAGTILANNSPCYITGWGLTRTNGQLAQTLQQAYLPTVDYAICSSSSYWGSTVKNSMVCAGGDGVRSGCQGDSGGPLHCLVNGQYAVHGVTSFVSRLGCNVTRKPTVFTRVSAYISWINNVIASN

For `CCCCCCCCCC=CCC(CC(=O)O)C(=O)N[C@@H](C)C(=O)N[C@@H](C)C(=O)N1CCC[C@H]1C(=O)NCCC` (some centres unmarked) [Dde--Ala--Ala--Pro--NH--Pr, N-(2-Dodecenylsuccinyl)alanyl-alanyl-proline propylamide], the Ki in assay [1] is 100 µM; in assay [2] (setting [3]), 0.6 µM; in assay [2] (setting [4]), 0.5 µM.

Regarding `CCNC(=O)[C@H](C)NC(=O)[C@H](C)NC(=O)[C@@H]1CCCN1C(=O)[C@H](CC(=O)O)NC(C)=O` [Ac--Asp--Pro--Ala--Ala--NH--Et, N^α -Acetylaspartyl-prolyl-alanyl-alanine ethylamide] (Ac-DPAA-NHEt), the Ki in assay [1] was 1000 µM; in assay [2] (setting [3]), 34 µM; in assay [2] (setting [4]), 25 µM.

For `CCCC(=O)N[C@@H](CC(=O)O)C(=O)N[C@@H](C)C(=O)N[C@@H](C)C(=O)N1CCC[C@H]1C(=O)NCC(C)C` [Btr--Asp--Ala--Ala--Pro--NH--iBu, N^α -Butyrylaspartyl-alanyl-alanyl-proline isobutylamide] (Butyryl-DAAP-NHiBu), the Ki was determined as 136 µM in assay [1], 120 µM in assay [2] (setting [3]) and 120 µM in assay [2] (setting [4]).

`CCNC(=O)[C@H](C)NC(=O)[C@H](C)NC(=O)[C@H](C)NC(=O)[C@H](CCC(=O)O)NC(=O)OCc1ccccc1` [Z--Glu--Ala--Ala--Ala--NH--Et] (Cbz-EAAA-NHEt): the Ki worked out at 720 µM in assay [1], 173 µM in assay [2] (setting [3]) and 28 µM in assay [2] (setting [4]).

For `CCCCCCCCCCC(=O)N[C@@H](CC(=O)O)C(=O)N[C@@H](C)C(=O)N[C@@H](C)C(=O)N1CCC[C@H]1C(=O)NCC` [UDA--Asp--Ala--Ala--Pro--NH--Et, N^α -Undecanoylaspartyl-alanyl-alanyl-proline ethylamide] (Undecanoyl-DAAP-NHEt), the Ki in assay [1] amounted to 12 µM; in assay [2] (setting [3]), 5.4 µM.

As to `CCCCCCCCCC=CCC(CC(=O)O)C(=O)N[C@@H](C)C(=O)N[C@@H](C)C(=O)N[C@@H](C)C(=O)NCC(C)C` (some centres unmarked) [Dde--Ala--Ala--Ala--NH--iBu], the Ki in assay [1] was 515 µM; in assay [2] (setting [3]) it was 93 µM; in assay [2] (setting [4]), 99 µM.

For the compound `CCCCCCCCCC=CCC(CC(=O)O)C(=O)N[C@@H](C)C(=O)N[C@@H](C)C(=O)N[C@@H](C)C(=O)NCC` (some centres unmarked) [Dde--Ala--Ala--Ala--NH--Et, N-(2-Dodecenylsuccinyl)alanyl-alanyl-alanine ethylamide], the “Inhibition constant Ki, LE, Glt--(Ala)3--Val--Nan” value in assay [1] is “no inhibition”. The results for the Ki in assay [2] (setting [3]) and in assay [2] (setting [4]) were 1.8 µM and 2.5 µM, respectively.

On to `CCCNC(=O)[C@@H]1CCCN1C(=O)[C@H](C)NC(=O)[C@H](C)NC(=O)[C@H](CCC(=O)O)NC(=O)CCC` [Btr--Glu--Ala--Ala--Pro--NH--Pr] (Butyryl-EAAP-NHPr), for which the Ki in assay [1] was 180 µM; in assay [2] (setting [3]), 193 µM; in assay [2] (setting [4]) it was 178 µM.
